Results taken from the Kinase Knowledgebase extract (Sharma et al. 2016).

Biological target: PIK3CD (Human) (UniProt O00329)
Assay: Assessment of PIK3CD Kinase Activity

Chain of PIK3CD (Human) (O00329 whole entry, looked up): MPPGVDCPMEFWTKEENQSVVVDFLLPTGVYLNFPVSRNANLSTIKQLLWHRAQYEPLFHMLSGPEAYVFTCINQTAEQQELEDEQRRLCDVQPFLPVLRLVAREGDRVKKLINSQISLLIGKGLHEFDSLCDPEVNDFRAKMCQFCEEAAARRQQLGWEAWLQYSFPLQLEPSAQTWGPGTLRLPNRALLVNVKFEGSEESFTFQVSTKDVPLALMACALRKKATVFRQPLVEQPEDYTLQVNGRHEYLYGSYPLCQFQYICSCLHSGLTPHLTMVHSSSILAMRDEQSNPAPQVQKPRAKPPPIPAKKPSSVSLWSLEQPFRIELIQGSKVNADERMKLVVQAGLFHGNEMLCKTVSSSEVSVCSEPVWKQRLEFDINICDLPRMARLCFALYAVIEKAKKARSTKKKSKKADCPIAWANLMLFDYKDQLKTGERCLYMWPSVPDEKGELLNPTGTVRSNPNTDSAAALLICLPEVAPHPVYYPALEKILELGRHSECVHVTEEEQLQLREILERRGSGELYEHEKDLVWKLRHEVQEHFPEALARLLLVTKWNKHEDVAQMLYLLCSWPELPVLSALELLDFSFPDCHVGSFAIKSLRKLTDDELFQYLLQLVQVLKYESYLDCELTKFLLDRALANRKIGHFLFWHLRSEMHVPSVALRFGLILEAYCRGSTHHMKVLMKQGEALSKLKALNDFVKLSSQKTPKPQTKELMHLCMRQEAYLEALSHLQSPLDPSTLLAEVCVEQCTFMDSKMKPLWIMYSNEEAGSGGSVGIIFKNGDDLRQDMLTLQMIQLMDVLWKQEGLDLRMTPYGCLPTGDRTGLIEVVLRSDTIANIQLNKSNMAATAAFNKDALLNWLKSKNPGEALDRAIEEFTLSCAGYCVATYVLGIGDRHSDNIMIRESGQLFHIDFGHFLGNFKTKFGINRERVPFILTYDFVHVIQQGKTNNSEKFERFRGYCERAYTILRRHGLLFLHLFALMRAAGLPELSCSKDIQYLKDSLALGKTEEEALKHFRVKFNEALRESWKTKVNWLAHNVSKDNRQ

CNCCN(C)c1nc2c(C)cccc2cc1CNc1cccc(OC)c1
IC50: 0.5 to 1.5 µM

CCOc1ccccc1-c1nc2c(C)cccc2cc1Cn1cnc2c(N)ncnc21
IC50: 0.25 to 0.5 µM

CNCCN(C)c1nc2c(C)cccc2cc1COc1cccc(OC)c1
IC50: 0.5 to 1.5 µM

Cc1cccc2cc(CNC(=O)c3nccnc3N)c(N3C[C@H](C)NC[C@H]3C)nc12
IC50: 0.25 to 0.5 µM

Cc1cccc2cc(CNC(=O)c3nccnc3N)c(N3CCC(N(C)C(=O)OC(C)(C)C)CC3)nc12
IC50: 0.5 to 1.5 µM

COc1cccc(NCc2cc3cccc(C)c3nc2-c2ccccc2Cl)c1
IC50: 0.5 to 1.5 µM

CNCCCC(C)c1nc2c(C)cccc2cc1CNC(=O)c1nccnc1N (configuration not stated)
IC50: 0.05 to 0.25 µM

COc1cc(OC)cc(OCc2cc3cccc(C)c3nc2-c2ccccc2Cl)c1
IC50: 0.5 to 1.5 µM

Cc1ccc(S(=O)(=O)C(C)CCN(C)c2nc3c(C)cccc3cc2CNC(=O)c2nccnc2N)cc1 (configuration not stated)
IC50: 0.5 to 1.5 µM

Cc1cccc2cc(Cn3cnc4c(N)ncnc43)c(N3CCC4CCCCC4C3)nc12 (configuration not stated)
IC50: 0.5 to 1.5 µM

COc1cnc(C(=O)NCc2nc3ccccc3cc2-c2ccccc2C)c(N)n1
IC50: 0.5 to 1.5 µM

COc1ccc(OCc2cc3cccc(C)c3nc2-c2ccccc2Cl)c(Cl)c1
IC50: 0.5 to 1.5 µM

COc1ccc(NCc2cc3cccc(C)c3nc2-c2ccccc2Cl)cc1OC
IC50: 0.5 to 1.5 µM

Cc1cccc2cc(CNC(=O)c3nccnc3N)c(N(C)CCN(C)C(=O)[C@@H]3CCCN3)nc12
IC50: 0.05 to 0.25 µM

Cc1ccc(C)c(-c2nc3c(C)cccc3cc2Cn2cnc3c(N)ncnc32)c1
IC50: 0.05 to 0.25 µM

CN(C)Cc1ccccc1-c1cc2c(Cl)cccc2nc1CNC(=O)c1nccnc1N
IC50: < 0.05 µM

COc1cc(NCc2cc3cccc(C)c3nc2-c2ccccc2Cl)cc(OC)c1
IC50: 0.5 to 1.5 µM
